“And” between values parts separate entries of the source, which are not always exact repeats. Identical values can stand only once.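 All cell lines were grown in 96-well plates and treated with compound for 48 hours. Abbreviation: GI50, concentration required for 50% inhibition of growth. TGI: total growth inhibition.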
Columns and labels:
Experiment in all cases: NCI anticancer screen, dose series, 48 h
[1] = system: EKVX NSCLC
[2] = system: HCT-15 colon
[3] = system: MOLT-4 leukemia
[4] = system: NCI-H23 lung
[5] = system: OVCAR-4 ovarian
[6] = system: OVCAR-8 ovarian
[7] = system: RPMI-8226 leukemia
[8] = system: SF-295 CNS
[9] = system: SK-MEL-2 melanoma
[10] = system: SN12C renal

| Structure (SMILES) | TGI [1] [µM] | TGI [2] | TGI [3] [µM] | TGI [4] [µM] | TGI [5] [µM] | TGI [6] | TGI [7] [µM] | TGI [8] [µM] | TGI [9] [µM] | TGI [10] | GI50 [1] [µM] | GI50 [2] [µM] | GI50 [3] [µM] | GI50 [4] [µM] | GI50 [5] [µM] | GI50 [6] | GI50 [7] [µM] | GI50 [8] [µM] | GI50 [9] [µM] | GI50 [10] [µM] |
| --- | --- | --- | --- | --- | --- | --- | --- | --- | --- | --- | --- | --- | --- | --- | --- | --- | --- | --- | --- | --- |
| CN1CCc2ccccc2C1Cc1ccccc1NC(=O)c1sc2ccccc2c1Cl (stereo unspecified) | > 100 | > 100 µM | > 100 | > 100 | > 100 | > 100 µM | > 100 | > 100 | > 100 | > 100 µM |  |  |  |  |  |  |  |  |  |  |
| COc1cc2c(/C=C3\C(=O)N(C)c4ccccc43)c[nH]c2cc1C | > 100 | > 100 µM | > 64 | > 67.9 | > 100 | 45.1 µM | > 20.1 | 15.6 | > 84.1 | > 73.5 µM | 8.81 | 0.33 | 5.83 | 5.33 | > 100 | 4.14 µM | 1.42 | 0.374 | 10.2 | 2 |
| CCCCCCCCCCCCCCCCc1c(C(=O)OC)nc(NC#N)[nH]c1=O | > 25 | > 25 µM | > 25 | > 25 | > 25 | > 25 µM | > 25 | > 25 | > 25 | > 25 µM |  |  |  |  |  |  |  |  |  |  |
| NC(=O)c1cn(C2CC(O)C(CO)O2)c2ncnc(N)c12 (stereo unspecified) | > 23.2 | 55.2 µM | > 100 | 18.8 | > 100 | 17.9 µM | > 100 | > 76.6 | > 28.2 | 31.1 µM | 1.92 | 3.89 | 0.611 | 2.5 | 6.26 | 2.09 µM | 27.7 | 12.6 | 10.5 | 1.56 |
| O=c1[nH]c(-c2ccc(Cl)c(Cl)c2)cn1-c1ccc(Cl)cc1 | > 100 | > 100 µM | 38.9 | 37.1 | 35.3 | > 100 µM | > 100 | 64 | 64.6 | > 100 µM | 35.4 | > 100 | 20.8 | 16.4 | 19.7 | 34.7 µM | 56.9 | 25 | 24.4 | 26.7 |
| Cn1cnc([N+](=O)[O-])c1Sc1n[nH]c(-c2ccc(Cl)cc2)n1 | 79.9 |  | 38.1 | 37.9 | 57.4 | 32.4 µM | 87.7 | 58.8 | 29.9 | 31.6 µM |  |  |  |  |  |  |  |  |  |  |
| CC(C)[C@@]12C[C@@H](OC(=O)C3CO3)[C@@](C)(O1)[C@@H]1CC[C@@H](C)[C@H]1[C@@H]2OC(=O)/C=C/c1ccccc1 (stereo partly specified) | 50.9 | 60.6 µM | > 100 | 53.8 | 26.6 | 60.3 µM | 55.2 | 32.2 | 42.8 | 32.5 µM | 18.2 | 21.1 | 24.7 | 17.8 | 13.2 | 5.33 µM | 20.4 | 16.9 | 19.1 | 11.9 |
| OCc1ccc(-c2nc(-c3ccc4c(c3)OCO4)c(-c3ccccn3)[nH]2)cc1 | > 25 | > 25 µM | > 25 | > 25 | > 25 | > 25 µM | > 25 | > 25 | > 25 | > 25 µM | > 25 | 15.1 | > 25 | > 25 | > 25 | > 25 µM | 15.9 | > 25 | > 25 | > 25 |
| CC1(C)C(=O)/C=C\C(=O)C(C)(C)C2=CC=C(O2)C(C)(C)C(=O)C(Br)C(Br)C(=O)C(C)(C)C2=CC=C1O2 (stereo unspecified) | > 100 | > 100 µM | 30.6 | > 100 | > 100 | 40.1 µM | 9.56 | > 100 | > 100 | > 100 µM |  |  |  |  |  |  |  |  |  |  |
| CC[C@]12CN3CCc4c([nH]c5ccccc45)[C@@](C(=O)OC)(c4cc5c(cc4OC)N(C)[C@H]4[C@@](O)(C(=O)OC)[C@H](OC(C)=O)[C@]6(CC)C=CCN7CC[C@]54[C@@H]76)CC(C3)[C@H]1O2 (stereo partly specified) | > 100 | 9.43 µM and > 28.1 µM | > 100 | > 68.1 | > 100 | > 100 µM | > 100 | > 12.3 |  | 15.4 µM and > 50 µM | 0.256 | 2.92 | 0.236 | 0.205 | 0.327 | 0.273 µM | 0.138 |  | 0.0434 | 0.408 |
| C[C@]12Cc3conc3C(O)=C1CC[C@@H]1C2CC[C@@]2(C)C1CC[C@@H]2O (stereo partly specified) | 64.7 | > 100 µM | 37.7 | 64.3 | > 100 | 88.5 µM | 20.4 | 88.3 | 21.4 | > 100 µM |  |  |  |  |  |  |  |  |  |  |
| COc1cc2c3c(n(CCCN=[N+]=[N-])c(=O)c2cc1OC)-c1ccc([N+](=O)[O-])cc1C3=O | > 100 | > 100 µM | > 100 | > 100 | > 100 | > 100 µM | > 100 | > 100 | > 100 | > 100 µM | 40.1 | > 100 | 63.3 | 91.1 | > 100 | > 100 µM | 90.7 | > 100 | 36.5 | > 100 |
| O=Cc1ccc(-c2ccc(-c3nc4ccccc4s3)cc2)o1 | > 100 | > 100 µM | > 100 | > 100 | > 100 | > 100 µM | > 100 | > 100 | > 100 | > 100 µM | > 100 | 90.4 | > 100 | 67.7 | > 100 | 70.7 µM | 20.9 | 41.7 | > 100 | > 100 |
| COc1ccc2c(n1)Sc1nc3ccccc3nc1N2 | 60.3 | > 100 µM | 35.1 | > 100 | > 100 | 57 µM | > 100 | > 100 | > 100 | 71.6 µM |  |  |  |  |  |  |  |  |  |  |
| COc1cccc2c1C(=O)c1c(O)c3c(c(O)c1C2=O)C[C@](O)(C(=O)CO)C[C@H]3O[C@@H]1C[C@@H](NC(=O)CCCN(C)C2(c3ccc(F)cc3)CC3CCC2C3)[C@H](O)[C@@H](C)O1 (stereo partly specified) | 2.01 | 2.25 µM | 1.9 | 1.71 | 1.61 | 2.36 µM | 2.23 | 1.6 | 2.15 | 14 µM | 0.917 | 0.971 | 0.382 | 0.829 | 0.844 | 0.913 µM | 0.946 | 0.805 | 1.06 | 5.13 |
| COc1cc2c3c(n(CCCN=[N+]=[N-])c(=O)c2cc1OC)-c1ccccc1C3=O | > 100 | > 100 µM | 3.38 | 21.8 | > 100 | > 100 µM | > 100 | 9.86 | > 100 | > 100 µM | > 100 | 27.4 | 0.702 | 3.23 | 22.6 | 5.68 µM | 6.19 | 2.87 | > 100 | 13.7 |
| COc1cc2c3c(n(CCCN=[N+]=[N-])c(=O)c2cc1OC)-c1ccc(F)cc1C3=O | > 100 | > 100 µM | 28.5 | > 100 | > 100 | > 100 µM | 10.8 | 7.97 | > 100 | > 100 µM | 89.4 | 79.3 | 2.7 | 14.1 | 55.9 | 21.2 µM | 1.7 | 2.62 | > 100 | 8.26 |
| NC1=NN(c2ccccc2)C(=O)C1C(=O)C(=O)Nc1ccccc1 (stereo unspecified) | > 100 | > 100 µM | > 100 | > 100 | > 100 | > 100 µM | > 100 | > 100 | > 100 | > 100 µM |  |  |  |  |  |  |  |  |  |  |
| CCOc1ccc(-c2nc3ccc(-c4nc5ccc(N6CCN(C)CC6)cc5[nH]4)cc3[nH]2)cc1 | 3.1 | 7.61 µM | 1.81 | 1.44 | 0.838 | 0.54 µM and 1.25 µM | 0.71 | 2.63 | 2.49 | 1.61 µM | 0.658 | 1.48 | 0.299 | 0.288 | 0.219 | 0.162 µM and 0.315 µM | 0.0484 | 0.518 | 1.07 | 0.342 |
| CCOc1ccccc1/C=N\N=C(N/N=C/c1ccccc1OCC)N/N=C/c1ccccc1OCC | > 100 | > 100 µM | > 100 | > 100 | > 100 | > 100 µM | > 100 | > 100 | > 100 | > 100 µM | 3.04 | 0.95 | 4.69 | 2.77 | 1.17 | 3.01 µM | 1.73 | 2.41 | 2.78 | 2.32 |
| COc1ccc(-c2cnc(-c3ccc(OC)cc3)n2-c2cc(OC)c(OC)c(OC)c2)cc1 | > 100 | > 100 µM | 0.044 | > 100 | 58.3 | 50.7 µM | > 100 | 61.1 | > 100 | 56.7 µM | 36.8 | 36 | 0.0131 | 28.6 | 33.5 | 19.7 µM | 25.7 | 22.1 | 32.3 | 20.8 |
| COc1cc2c(cc1OC)[C@@H]1C(=O)c3ccc4c(c3O[C@@H]1CO2)C[C@H](C(C)C)O4 | > 48.2 | > 71 µM | > 69.2 | > 38 | > 100 | > 69.9 µM | 9.08 |  | 57 | > 76.8 µM | 0.239 | 9.26 | 6.81 | 0.0416 | 0.795 | 3.96 µM | 0.0152 | 0.294 | 18.5 | 10.6 |
| COc1cccc(/C=N\NC(=O)c2ccncc2)c1O | > 100 | > 100 µM | > 100 | > 100 | > 100 | > 100 µM | > 100 | 71.2 | > 100 | > 100 µM | 6.78 | 2.87 | 3.04 | 5.28 | 2.43 | 4.54 µM | 5.48 | 3.35 | 53.2 | 8.41 |
| O=CCCn1[nH]c(=O)ccc1=O | > 100 | > 100 µM | > 100 | > 100 | > 100 | > 100 µM | > 100 | > 100 | > 100 | > 100 µM |  |  |  |  |  |  |  |  |  |  |
| c1cc(OCCN2CCCC2)ccc1CNc1ccc2nc(CCC3CCCCC3)[nH]c2c1 | 6.51 | 3.7 µM | 5.81 | 8.17 | 12.7 | 10 µM | 3.64 | 3.86 | 3.55 | 8.21 µM | 1.86 | 1.55 | 1.76 | 2.45 | 2.64 | 2.69 µM | 1.35 | 1.97 | 1.84 | 2.08 |
| Nc1nc(-c2cccnc2)cc(-c2cc(-c3cccnc3)nc(N)n2)n1 | > 100 | > 100 µM | > 100 | > 100 | > 100 | > 100 µM | > 100 | > 100 | > 100 | > 100 µM |  |  |  |  |  |  |  |  |  |  |
| COc1cc(OC)c(C(=O)/C=C/c2ccc(C#N)cc2)c(OC)c1 | > 50 | 4.19 µM | 13 | 11.6 | > 50 | > 50 µM | 4.92 | 8.81 | 4.43 | 7.91 µM | 2.07 | 1.05 | 1.44 | 1.57 | 1.63 | 1.98 µM | 1.29 | 1.72 | 1.46 | 1.82 |

From PubChem BioAssay (NCI)
